Organism: Rattus norvegicus
Assay: Open TG-GATES - Regimen: Daily Repeat
Assay type: toxicity, organism-based, Sprague-Dawley
Design: regimen Daily Repeat, gender Male, age 6 weeks
Details: in vivo, po, 0 mg/kg, route gavage, dose level Control; for APTT / Bas / Eos / Fbg / Hb / Ht / Lym / MCH / MCHC / MCV / Mono / Neu / PT / Plat / RBC / Ret / WBC: tissue Blood; for KIDNEY_L / KIDNEY_R / KIDNEY_TOTAL: tissue Kidney; for LIVER: tissue Liver; for ALP / ALT / AST / BUN / CRE / Ca / Cl / DBIL / GLC / IP / K / LDH / Na / PL / RALB / TBIL / TC / TG / TP / gamma-GTP: tissue Plasma

Work on `O=P1(N(CCCl)CCCl)NCCCO1` (stereo not drawn) [CYCLOPHOSPHAMIDE ANHYDROUS] yielded a TERMINAL_BW (72 h, time 3 day) of 215.1 g, an APTT (72 h, time 3 day) of 21.5 s and a Bas (72 h, time 3 day) of 0%. It also gave an Eos (72 h, time 3 day) of 0.8%, a Fbg (72 h, time 3 day) of 293.2 mg/dL and a Hb (72 h, time 3 day) of 13.3 g/dL. The Ht (72 h, time 3 day) was 40.1%, the Lym (72 h, time 3 day) was 81.4% and the MCH (72 h, time 3 day) was 21.8 pg. The MCHC (72 h, time 3 day) was 33.2%, the MCV (72 h, time 3 day) was 65.7 fL and the Mono (72 h, time 3 day) was 2.6%. For the same compound, the Neu (72 h, time 3 day) was 14.6%, the PT (72 h, time 3 day) was 16.8 s and the Plat (72 h, time 3 day) was 112 x10_4/uL. For the same compound, the RBC (72 h, time 3 day) was 611 x10_4/ul, the Ret (72 h, time 3 day) was 6.7% and the WBC (72 h, time 3 day) was 82.4 x10_2/uL. For the same compound, the KIDNEY_L (72 h, time 3 day) was 0.9 g, the KIDNEY_R (72 h, time 3 day) was 0.9 g and the KIDNEY_TOTAL (72 h, time 3 day) was 1.9 g. For the same compound, the LIVER (72 h, time 3 day) was 10.1 g, the ALP (72 h, time 3 day) was 1749.2 IU/L and the ALT (72 h, time 3 day) was 40.2 IU/L. The AST (72 h, time 3 day) was 68 IU/L, the BUN (72 h, time 3 day) was 15.4 mg/dL and the CRE (72 h, time 3 day) was 0.2 mg/dL. For the same compound, the Ca (72 h, time 3 day) was 10.8 mg/dL, the Cl (72 h, time 3 day) was 106.2 meq/L and the DBIL (72 h, time 3 day) was 0.002 mg/dL. The GLC (72 h, time 3 day) was 182.6 mg/dL, the IP (72 h, time 3 day) was 6.4 mg/dL and the K (72 h, time 3 day) was 3.9 meq/L. For the same compound, the LDH (72 h, time 3 day) was 190.6 IU/L, the Na (72 h, time 3 day) was 142.6 meq/L and the PL (72 h, time 3 day) was 133.8 mg/dL. For the same compound, the RALB (72 h, time 3 day) was 3.1 g/dL, the TBIL (72 h, time 3 day) was 0.018 mg/dL and the TC (72 h, time 3 day) was 69.6 mg/dL. For the same compound, the TG (72 h, time 3 day) was 84.2 mg/dL, the TP (72 h, time 3 day) was 5.5 g/dL and the gamma-GTP (72 h, time 3 day) was 1 IU/L. For the same compound, the TERMINAL_BW ([…], time 7 day) was 254.4 g, the TERMINAL_BW ([…], time 14 day) was 304.2 g and the TERMINAL_BW ([…], time 28 day) was 368.5 g. It also gave an APTT ([…], time 7 day) of 21.7 s, a Bas ([…], time 7 day) of 0% and an Eos ([…], time 7 day) of 1%. For the same compound, the Fbg ([…], time 7 day) was 283.2 mg/dL, the Hb ([…], time 7 day) was 13.1 g/dL and the Ht ([…], time 7 day) was 39.7%. It also gave a Lym ([…], time 7 day) of 80%, an MCH ([…], time 7 day) of 20.7 pg and an MCHC ([…], time 7 day) of 33.1%. For the same compound, the MCV ([…], time 7 day) was 62.7 fL, the Mono ([…], time 7 day) was 2.4% and the Neu ([…], time 7 day) was 16.2%. It also gave a PT ([…], time 7 day) of 16.8 s, a Plat ([…], time 7 day) of 112.1 x10_4/uL and an RBC ([…], time 7 day) of 633.4 x10_4/ul. For the same compound, the Ret ([…], time 7 day) was 6.1%, the WBC ([…], time 7 day) was 106.9 x10_2/uL and the APTT ([…], time 14 day) was 22 s. The Bas ([…], time 14 day) was 0%, the Eos ([…], time 14 day) was 1% and the Fbg ([…], time 14 day) was 307.8 mg/dL. For the same compound, the Hb ([…], time 14 day) was 13.7 g/dL, the Ht ([…], time 14 day) was 40.6% and the Lym ([…], time 14 day) was 81.4%. The MCH ([…], time 14 day) was 20.2 pg, the MCHC ([…], time 14 day) was 33.7% and the MCV ([…], time 14 day) was 60 fL. For the same compound, the Mono ([…], time 14 day) was 2.2%, the Neu ([…], time 14 day) was 14.6% and the PT ([…], time 14 day) was 15 s. The Plat ([…], time 14 day) was 118.8 x10_4/uL, the RBC ([…], time 14 day) was 676.6 x10_4/ul and the Ret ([…], time 14 day) was 4.8%. The WBC ([…], time 14 day) was 131.2 x10_2/uL, the APTT ([…], time 28 day) was 23.8 s and the Bas ([…], time 28 day) was 0%. It also gave an Eos ([…], time 28 day) of 1%, a Fbg ([…], time 28 day) of 303.8 mg/dL and a Hb ([…], time 28 day) of 14.8 g/dL. It also gave a Ht ([…], time 28 day) of 43.6%, a Lym ([…], time 28 day) of 82.4% and an MCH ([…], time 28 day) of 19.2 pg. For the same compound, the MCHC ([…], time 28 day) was 34%, the MCV ([…], time 28 day) was 56.6 fL and the Mono ([…], time 28 day) was 2%. It also gave a Neu ([…], time 28 day) of 13.6%, a PT ([…], time 28 day) of 16.5 s and a Plat ([…], time 28 day) of 96.2 x10_4/uL. For the same compound, the RBC ([…], time 28 day) was 769.8 x10_4/ul, the Ret ([…], time 28 day) was 2.9% and the WBC ([…], time 28 day) was 112.3 x10_2/uL. For the same compound, the KIDNEY_L ([…], time 7 day) was 1.1 g, the KIDNEY_R ([…], time 7 day) was 1.1 g and the KIDNEY_TOTAL ([…], time 7 day) was 2.2 g. It also gave a KIDNEY_L ([…], time 14 day) of 1.2 g, a KIDNEY_R ([…], time 14 day) of 1.2 g and a KIDNEY_TOTAL ([…], time 14 day) of 2.4 g. It also gave a KIDNEY_L ([…], time 28 day) of 1.3 g, a KIDNEY_R ([…], time 28 day) of 1.3 g and a KIDNEY_TOTAL ([…], time 28 day) of 2.6 g. The LIVER ([…], time 7 day) was 11 g, the LIVER ([…], time 14 day) was 13.4 g and the LIVER ([…], time 28 day) was 14.2 g. For the same compound, the ALP ([…], time 7 day) was 1566.6 IU/L, the ALT ([…], time 7 day) was 44.8 IU/L and the AST ([…], time 7 day) was 77.6 IU/L. It also gave a BUN ([…], time 7 day) of 18.6 mg/dL, a CRE ([…], time 7 day) of 0.2 mg/dL and a Ca ([…], time 7 day) of 10.7 mg/dL. It also gave a Cl ([…], time 7 day) of 106 meq/L, a DBIL ([…], time 7 day) of 0 mg/dL and a GLC ([…], time 7 day) of 196.2 mg/dL. The IP ([…], time 7 day) was 7.9 mg/dL, the K ([…], time 7 day) was 4.4 meq/L and the LDH ([…], time 7 day) was 200.2 IU/L. The Na ([…], time 7 day) was 143.8 meq/L, the PL ([…], time 7 day) was 146.8 mg/dL and the RALB ([…], time 7 day) was 2.9 g/dL. The TBIL ([…], time 7 day) was 0.016 mg/dL, the TC ([…], time 7 day) was 73.8 mg/dL and the TG ([…], time 7 day) was 98.2 mg/dL. It also gave a TP ([…], time 7 day) of 5.4 g/dL, a gamma-GTP ([…], time 7 day) of 1.6 IU/L and an ALP ([…], time 14 day) of 1394.4 IU/L. For the same compound, the ALT ([…], time 14 day) was 37.8 IU/L, the AST ([…], time 14 day) was 65.8 IU/L and the BUN ([…], time 14 day) was 18.2 mg/dL. It also gave a CRE ([…], time 14 day) of 0.2 mg/dL, a Ca ([…], time 14 day) of 10.6 mg/dL and a Cl ([…], time 14 day) of 107 meq/L. The DBIL ([…], time 14 day) was 0 mg/dL, the GLC ([…], time 14 day) was 182.6 mg/dL and the IP ([…], time 14 day) was 7 mg/dL. For the same compound, the K ([…], time 14 day) was 4 meq/L, the LDH ([…], time 14 day) was 152 IU/L and the Na ([…], time 14 day) was 143.4 meq/L. For the same compound, the PL ([…], time 14 day) was 140.4 mg/dL, the RALB ([…], time 14 day) was 2.9 g/dL and the TBIL ([…], time 14 day) was 0.012 mg/dL. For the same compound, the TC ([…], time 14 day) was 67.4 mg/dL, the TG ([…], time 14 day) was 147.4 mg/dL and the TP ([…], time 14 day) was 5.7 g/dL. For the same compound, the gamma-GTP ([…], time 14 day) was 1.4 IU/L, the ALP ([…], time 28 day) was 1084 IU/L and the ALT ([…], time 28 day) was 40.4 IU/L. It also gave an AST ([…], time 28 day) of 66.4 IU/L, a BUN ([…], time 28 day) of 17.4 mg/dL and a CRE ([…], time 28 day) of 0.2 mg/dL. It also gave a Ca ([…], time 28 day) of 10.3 mg/dL, a Cl ([…], time 28 day) of 106.6 meq/L and a DBIL ([…], time 28 day) of 0 mg/dL. The GLC ([…], time 28 day) was 181.2 mg/dL, the IP ([…], time 28 day) was 6.4 mg/dL and the K ([…], time 28 day) was 4 meq/L. The LDH ([…], time 28 day) was 121.8 IU/L, the Na ([…], time 28 day) was 144 meq/L and the PL ([…], time 28 day) was 135.4 mg/dL. For the same compound, the RALB ([…], time 28 day) was 3.1 g/dL, the TBIL ([…], time 28 day) was 0.02 mg/dL and the TC ([…], time 28 day) was 67 mg/dL. It also gave a TG ([…], time 28 day) of 111.2 mg/dL, a TP ([…], time 28 day) of 6.2 g/dL and a gamma-GTP ([…], time 28 day) of 1.2 IU/L.

From ChEMBL document CHEMBL3885861, “Open TG-GATES”
